# Data: patent US20250320496A1, “MODULATION OF ABCB11 GENE TRANSCRIPTION USING ANTISENSE OLIGONUCLEOTIDES TARGETING REGULATORY RNAS” (CAMP4 Therapeutics Corporation, priority 2022, published 2025)
# Strand notation (5' to 3'): a small letter for the sugar, then the base; units joined by * are phosphorothioate-linked, units joined directly phosphodiester-linked; [ ] holds rarer units or linkages, { } end groups; capitals alone tell only the bases. e = 2'-O-(2-methoxyethyl) (MOE); l = locked nucleic acid (LNA); [5mC] = 5-methylcytosine; d = 2'-deoxy (DNA)
# Test system: human ABCB11 mRNA
# Test: ASO treatment of primary human hepatocytes (PHH), ABCB11 mRNA by RT-qPCR normalized to B2M
# Type: cell-based
# Conditions: primary human hepatocytes; for ABCB11 mRNA FC (5 μM ASO vs. UNT): normalized to untreated PHHs (UNT); for ABCB11 FC mRNA (5 μM ASO vs. untreated): 5 μM ASO with PO-modifications, normalized to untreated hepatocytes
# Experimental: Primary human hepatocytes (PHH) were thawed using Lonza Human Cryopreserved Hepatocyte Thawing Medium and plated in 96-well collagen-coated plates (5.5-6.0×10^4 cells per well). Four hours later, the media was replaced with sterile-filtered QualGro™ Hepatocyte Culture Medium (BioIVT) containing antibiotic supplement, 0.3 mg/ml Matrigel® matrix (Corning®), and ASO at the desired concentration (e.g., 1.25 μM, 2.5 μM, 5 μM, or 10 μM). After 72 hrs., cells were harvested by aspirating media, washing once with phosphate-buffered saline (PBS), and lysed with 150 μl of Buffer RLT lysis buffer (Qiagen®). Plates were frozen at-80° C. during cell lysis. After thawing, total RNA was isolated using the Qiagen RNEasy kit as instructed by manufacturer. cDNA (random-primed) was synthesized from 10 μl of RNA using the LifeTech High Capacity cDNA Reverse Transcription kit. 2 μl of cDNA was used for reverse transcription-quantitative PCR (RT-qPCR) analyses using standard Taqman” reagents from Applied Biosystems™ to measure ABCB11 and CYP7A1 gene expression. Gene expression data was normalized to the housekeeper gene, beta-2-microglobulin (B2M).
# To assess the ability of ASOs targeting ABCB11 regRNAs to modulate the expression of human ABCB11, 195 ASOs targeting the human ABCB11 regRNAs were synthesized. These initial ASOs were screened in PHHs at 5 μM to determine their efficacy in increasing human ABCB11 mRNA using quantitative PCR. This initial screen identified 10 ASOs that induced increased expression of ABCB11 mRNA by more than 1.5-fold (as compared to untreated PHHs).
Substance,ABCB11 mRNA FC (5 μM ASO vs. UNT),ABCB11 FC mRNA (5 μM ASO vs. untreated)
CO-6986 (antisense eT*eG*eG*lA*eT*dG*dT*lA*dG*dA*dT*lG*dA*dA*dT*lG*eG*e[5mC]*eA*eA),0.998 fold change,
CO-7167 (antisense eG*eG*e[5mC]*eG*eT*eT*eA*eT*eT*eA*eA*eT*eT*e[5mC]*eT*eA*e[5mC]*eA*eG*eA),1.403 fold change,
CO-7010 (antisense eT*eG*eT*eG*eG*eA*eT*eG*eT*eA*eG*eA*eT*eG*eA*eA*eT*eG*eG*e[5mC]*eA*eA*eG*eG),1.293 fold change,
CO-4522 (antisense e[5mC]*eA*e[5mC]*eT*eG*eG*e[5mC]*e[5mC]*e[5mC]*eA*eT*e[5mC]*eA*eA*eT*eT*eG*e[5mC]*eA*eT),1.027 fold change,
CO-11206 (antisense eT*eGeT*eT*eTeT*eG*e[5mC]eT*eT*eGeG*eT*e[5mC]eA*eA*eGeA*eG*eG),,1.02 fold change
CO-7197 (eG*eG*eT*eG*eG*dA*dG*d[5mC]*eA*dA*dA*d[5mC]*dT*eA*dG*dG*d[5mC]*eA*e[5mC]*eT*eG*eA; antisense),1.364 fold change,
CO-12749 (antisense eG*eT*eGeA*eG*eG*e[5mC]*eAeT*e[5mC]*eA*eG*eGeT*eA*eA*eG*eTeT*e[5mC]),,0.95 fold change
CO-4048 (antisense eA*eG*e[5mC]*eA*eT*e[5mC]*eT*eG*eG*eA*eT*e[5mC]*e[5mC]*eT*eG*e[5mC]*eA*eA*e[5mC]*e[5mC]),1.448 fold change,
CO-4038 (antisense e[5mC]*eT*e[5mC]*eG*eT*eA*eT*eG*eT*e[5mC]*eA*e[5mC]*eT*eG*eA*eA*e[5mC]*eT*eG*eT),1.701 fold change,
CO-7027 (antisense e[5mC]*eG*eA*e[5mC]*eA*eG*eT*eG*eA*eG*e[5mC]*eT*eT*eA*eT*e[5mC]*eT*eG*eG*eA),1.304 fold change,
CO-4501 (antisense eG*e[5mC]*eA*eT*eG*eG*eT*eA*eG*e[5mC]*eT*eA*eG*eT*eG*eA*eT*eA*eA*eT),1.023 fold change,
CO-7008 (antisense eG*eT*eG*eG*eA*lT*dG*dT*lA*dG*dA*dT*dG*lA*dA*dT*lG*eG*e[5mC]*eA*eA*eG),1.175 fold change,
CO-4525 (antisense eA*e[5mC]*e[5mC]*e[5mC]*eA*e[5mC]*eA*eT*eA*eG*eT*eT*eG*eT*eA*e[5mC]*eT*e[5mC]*eT*e[5mC]),0.995 fold change,
CO-11201 (antisense eT*eGeTeTeTeTeG*e[5mC]*eT*eT*eG*eG*eT*e[5mC]eAeAeGeAeG*eG),,0.99 fold change
CO-7063 (eT*e[5mC]*lT*eG*eG*lA*eA*eA*lA*eT*eA*lA*eT*eG*l[5mC]*e[5mC]*eT*lT*eT*e[5mC]; antisense),1.291 fold change,
CO-7061 (eT*e[5mC]*eT*lG*eG*lA*eA*lA*eA*lT*eA*lA*eT*lG*e[5mC]*l[5mC]*eT*lT*eT*e[5mC]; antisense),1.261 fold change,
CO-7038 (antisense eA*eA*e[5mC]*eT*eG*eT*eA*e[5mC]*eA*eT*eT*eT*eA*eG*eA*eG*eA*e[5mC]*eA*eA),1.189 fold change,
CO-11203 (antisense eT*eG*eT*eTeT*eT*eG*e[5mC]eT*eT*eG*eGeT*e[5mC]*eA*eAeG*eA*eG*eG),,1.38 fold change
CO-6998 (antisense eG*eT*eG*lA*eG*lG*e[5mC]*lA*eT*l[5mC]*eA*lGeG*lT*eA*lA*eG*lT*eT*e[5mC]),1.246 fold change,
CO-6979 (antisense eG*eT*eG*eA*eG*dG*d[5mC]*dA*dT*d[5mC]*dA*dG*dG*dT*dA*eA*eG*eT*eT*e[5mC]),1.201 fold change,
CO-12746 (antisense eG*eT*eG*eAeGeGe[5mC]*eA*eT*e[5mC]*eA*eG*eG*eTeAeAeG*eT*eT*e[5mC]),,1.09 fold change
CO-4502 (antisense eA*eA*eA*eT*eGeT*eT*eG*eG*e[5mC]*e[5mC]e[5mC]*eT*eT*eG*eA*eG*eG*eA*eG),1.142 fold change,
CO-4022 (antisense eG*eA*eT*eG*eA*e[5mC]*eT*e[5mC]*eT*eT*eG*eG*eT*eT*eG*e[5mC]*eT*eG*eT*e[5mC]),1.168 fold change,

Substance,ABCB11 mRNA FC (5 μM ASO vs. UNT),ABCB11 FC mRNA (5 μM ASO vs. untreated)
CO-4063 (antisense eG*e[5mC]*eA*e[5mC]*e[5mC]*e[5mC]*eA*eA*e[5mC]*e[5mC]*eA*eA*eG*eT*e[5mC]*eT*eT*eG*eA*e[5mC]),1.457 fold change,
CO-4046 (antisense eG*eG*eG*eAeA*eA*eG*eT*eT*eT*eA*eA*eA*eGeGeT*eA*eT*eT*eT),1.035 fold change,
CO-4498 (antisense eG*eT*e[5mC]*e[5mC]*e[5mC]*eT*eG*eT*eG*eG*eT*eT*eA*e[5mC]*e[5mC]*eT*eA*eA*eA*eG),0.934 fold change,
CO-7208 (eT*eT*eT*eG*eG*e[5mC]*eG*eT*eT*eA*eT*eT*eA*eA*eT*eT*e[5mC]*eT*eA*e[5mC]*eA*eG*eA*eG; antisense),1.339 fold change,
CO-4504 (antisense eG*eT*eG*eT*e[5mC]*eT*eA*eT*eT*eT*eG*eG*eT*eA*eT*e[5mC]*eA*eG*eA*e[5mC]),1.232 fold change,
CO-7058 (antisense eT*e[5mC]*eT*eG*eG*lA*dA*dA*lA*dT*dA*lA*dT*dG*l[5mC]*e[5mC]*eT*eT*eT*e[5mC]),1.052 fold change,
CO-7001 (antisense eG*eT*eG*eA*lG*eG*e[5mC]*eA*lT*e[5mC]*eA*eG*lGeT*eA*eA*lG*eT*eT*e[5mC]),1.237 fold change,
CO-4049 (antisense eG*eT*e[5mC]*eT*e[5mC]*e[5mC]*eA*e[5mC]*eA*eA*eA*eA*e[5mC]*eT*e[5mC]*eT*eA*eT*eA*eG),0.889 fold change,
CO-7189: derivative ASO with additional chemical modifications based on parent ASO CO-4535 (antisense eT*eG*lG*e[5mC]*lG*eT*lT*eA*lT*eT*lA*eA*lT*eT*l[5mC]*eT*lA*e[5mC]*eA*eG),1.487 fold change,
CO-7025 (antisense eA*eG*eT*eG*eA*eG*e[5mC]*eT*eT*eA*eT*e[5mC]*eT*eG*eG*eA*eA*eA*eA*eT),1.259 fold change,
CO-4029 (antisense eA*eT*eA*e[5mC]*eT*eT*eG*eT*e[5mC]*eT*e[5mC]*eT*eG*e[5mC]eA*eA*eA*eT*e[5mC]*e[5mC]),0.908 fold change,
CO-7153 (antisense eA*e[5mC]*e[5mC]*eT*eT*eA*eG*eG*eA*eG*eG*eA*eT*eT*eA*eT*eT*eT*eA*eA*e[5mC]*e[5mC]*eT*e[5mC]),1.409 fold change,
CO-7002 (antisense eG*eT*eG*lA*eG*eG*e[5mC]*lA*eT*e[5mC]*eA*lG*eG*eT*eA*lA*eG*eT*eT*e[5mC]),1.367 fold change,
CO-7097 (eA*e[5mC]*e[5mC]*e[5mC]*l[5mC]*e[5mC]*e[5mC]*eT*e[5mC]*lA*e[5mC]*e[5mC]*eT*eT*lG*eG*eT*eT*e[5mC]*e[5mC]; antisense),1.028 fold change,
CO-4515 (antisense eG*e[5mC]*e[5mC]*e[5mC]*eA*eA*eA*eT*eG*eA*eG*eG*eT*eG*eA*eT*eA*e[5mC]*eA*eA),0.978 fold change,
CO-4506 (antisense eT*eG*e[5mC]*eA*eT*eT*eG*e[5mC]*eA*eT*eG*eT*eT*eG*eA*eG*e[5mC]*eT*eG*eG),1.169 fold change,
CO-7191: derivative ASO with additional chemical modifications based on parent ASO CO-4535 (eT*eG*eG*e[5mC]*lG*eT*eT*eA*lT*eT*eA*eA*lT*eT*e[5mC]*eT*lA*e[5mC]*eA*eG),1.676 fold change,
CO-6989 (antisense eT*eG*lG*eA*lT*eG*lT*eA*lG*eA*lT*eG*lA*eA*lT*eG*lG*e[5mC]*eA*eA),1.469 fold change,
CO-7094 (eA*e[5mC]*e[5mC]*e[5mC]*l[5mC]*e[5mC]*e[5mC]*eT*l[5mC]*eA*e[5mC]e[5mC]*lT*eT*eG*eG*lT*eT*e[5mC]*e[5mC]),0.993 fold change,
CO-7047 (antisense eG*eA*eG*eT*eT*eG*eT*eG*eT*eT*eT*eT*eG*e[5mC]*eT*eT*eG*eG*eT*e[5mC]),1.175 fold change,
CO-6673 (antisense eG*eA*eA*eG*eG*dA*d[5mC]*dA*d[5mC]*dA*dA*dT*dT*dT*d[5mC]*eT*eG*eT*eA*eG),1.313 fold change,
CO-6974 (antisense eT*eG*eG*eG*eA*eA*eG*eT*eT*eT*eA*eA*eA*eA*eA*eA*eT*eG*eG*eG),1.394 fold change,
CO-4490 (antisense e[5mC]*eG*eA*eG*eA*eA*eA*eA*eT*eG*eA*eG*eG*eT*eA*e[5mC]*eA*eT*eG*eG),1.158 fold change,
